ChEMBL document CHEMBL3286253, “Design, synthesis, and structure-activity relationship studies of novel thioether pleuromutilin derivatives as potent antibacterial agents” (J Med Chem, 2014)
Values after ≈ are worked out from the molar mass of the structure shown.

How the values were obtained:
Format in all cases: functional
Streptococcus pneumoniae = test: Antibacterial activity against penicillin-resistant Streptococcus pneumoniae after 16 hrs by agar dilution method
[1] = system: Staphylococcus epidermidis; test: Antibacterial activity against methicillin-sensitive Staphylococcus epidermidis after 16 hrs by agar dilution method
Staphylococcus aureus [2] = test: Antibacterial activity against methicillin-resistant Staphylococcus aureus after 16 hrs by agar dilution method
Staphylococcus aureus [3] = test: Antibacterial activity against methicillin-sensitive Staphylococcus aureus after 16 hrs by agar dilution method
Staphylococcus aureus [4] = test: Antibacterial activity against Staphylococcus aureus […] after 16 hrs by agar dilution method
[5] = system: Staphylococcus epidermidis; test: Antibacterial activity against methicillin-resistant Staphylococcus epidermidis after 16 hrs by agar dilution method

Row | SMILES | MIC (Streptococcus pneumoniae) | MIC [1] | MIC (Staphylococcus aureus [2]) | MIC (Staphylococcus aureus [3]) | MIC (Staphylococcus aureus [4]) | MIC [5]
1 | C=C[C@]1(C)C[C@@H](OC(=O)CS[C@@H]2C[C@H]3CC[C@@H](C2)N3C)[C@]2(C)[C@H](C)CC[C@]3(CCC(=O)[C@H]32)[C@@H](C)[C@@H]1O [RETAPAMULIN] | 0.063 µg/mL (≈ 0.122 µM) | 0.063 µg/mL (≈ 0.122 µM) | 0.063 µg/mL (≈ 0.122 µM) | 0.063 µg/mL (≈ 0.122 µM) | 0.125 µg/mL (≈ 0.241 µM) | 0.063 µg/mL (≈ 0.122 µM)
2 | C=C[C@]1(C)C[C@@H](OC(=O)CSc2cncc(F)c2)[C@]2(C)[C@H](C)CC[C@]3(CCC(=O)[C@H]32)[C@@H](C)[C@@H]1O | 0.25 µg/mL (≈ 0.511 µM) | 0.125 µg/mL (≈ 0.255 µM) | 0.25 µg/mL (≈ 0.511 µM) | 0.25 µg/mL (≈ 0.511 µM) | 0.5 µg/mL (≈ 1.02 µM) | 0.25 µg/mL (≈ 0.511 µM)
3 | C=C[C@]1(C)C[C@@H](OC(=O)CSc2cncc(NC(=O)CN3CCCC(CO)C3)c2)[C@]2(C)[C@H](C)CC[C@]3(CCC(=O)[C@H]32)[C@@H](C)[C@@H]1O (stereo partly specified) | 0.063 µg/mL (≈ 0.0981 µM) | 0.063 µg/mL (≈ 0.0981 µM) | 0.063 µg/mL (≈ 0.0981 µM) | 0.063 µg/mL (≈ 0.0981 µM) | 0.063 µg/mL (≈ 0.0981 µM) | 0.063 µg/mL (≈ 0.0981 µM)
4 | C=C[C@]1(C)C[C@@H](OC(=O)CSc2cncc(NC(=O)[C@@H](N)[C@@H](C)CC)c2)[C@]2(C)[C@H](C)CC[C@]3(CCC(=O)[C@H]32)[C@@H](C)[C@@H]1O | 0.25 µg/mL (≈ 0.417 µM) | 0.25 µg/mL (≈ 0.417 µM) | 0.25 µg/mL (≈ 0.417 µM) | 0.25 µg/mL (≈ 0.417 µM) | 0.25 µg/mL (≈ 0.417 µM) | 0.25 µg/mL (≈ 0.417 µM)
5 | C=C[C@]1(C)C[C@@H](OC(=O)CSc2cncc(NC(=O)[C@@H](N)C(C)C)c2)[C@]2(C)[C@H](C)CC[C@]3(CCC(=O)[C@H]32)[C@@H](C)[C@@H]1O | 0.125 µg/mL (≈ 0.213 µM) | 0.125 µg/mL (≈ 0.213 µM) | 0.125 µg/mL (≈ 0.213 µM) | 0.125 µg/mL (≈ 0.213 µM) | 0.25 µg/mL (≈ 0.427 µM) | 0.125 µg/mL (≈ 0.213 µM)
6 | C=C[C@]1(C)C[C@@H](OC(=O)CSc2ncccn2)[C@]2(C)[C@H](C)CC[C@]3(CCC(=O)[C@H]32)[C@@H](C)[C@@H]1O | 0.125 µg/mL (≈ 0.264 µM) | 0.125 µg/mL (≈ 0.264 µM) | 0.063 µg/mL (≈ 0.133 µM) | 0.125 µg/mL (≈ 0.264 µM) | 0.125 µg/mL (≈ 0.264 µM) | 0.063 µg/mL (≈ 0.133 µM)
7 | C=C[C@]1(C)C[C@@H](OC(=O)CSc2cncc(/C=N/N)c2)[C@]2(C)[C@H](C)CC[C@]3(CCC(=O)[C@H]32)[C@@H](C)[C@@H]1O | 0.25 µg/mL (≈ 0.487 µM) | 0.25 µg/mL (≈ 0.487 µM) | 0.25 µg/mL (≈ 0.487 µM) | 0.25 µg/mL (≈ 0.487 µM) | 0.25 µg/mL (≈ 0.487 µM) | 0.25 µg/mL (≈ 0.487 µM)
8 | C=C[C@]1(C)C[C@@H](OC(=O)CSc2cncc(NC(=O)CN3CCCCC3)c2)[C@]2(C)[C@H](C)CC[C@]3(CCC(=O)[C@H]32)[C@@H](C)[C@@H]1O | 0.125 µg/mL (≈ 0.204 µM) | 0.125 µg/mL (≈ 0.204 µM) | 0.25 µg/mL (≈ 0.409 µM) | 0.125 µg/mL (≈ 0.204 µM) | 0.125 µg/mL (≈ 0.204 µM) | 0.125 µg/mL (≈ 0.204 µM)
9 | C=C[C@]1(C)C[C@@H](OC(=O)CSc2ccnc(N)c2)[C@]2(C)[C@H](C)CC[C@]3(CCC(=O)[C@H]32)[C@@H](C)[C@@H]1O | 0.063 µg/mL (≈ 0.129 µM) | 0.063 µg/mL (≈ 0.129 µM) | 0.063 µg/mL (≈ 0.129 µM) | 0.063 µg/mL (≈ 0.129 µM) | 0.063 µg/mL (≈ 0.129 µM) | 0.063 µg/mL (≈ 0.129 µM)
10 | C=C[C@]1(C)C[C@@H](OC(=O)CSc2cncc(NC(=O)[C@H](C)N)c2)[C@]2(C)[C@H](C)CC[C@]3(CCC(=O)[C@H]32)[C@@H](C)[C@@H]1O | 0.125 µg/mL (≈ 0.224 µM) | 0.125 µg/mL (≈ 0.224 µM) | 0.125 µg/mL (≈ 0.224 µM) | 0.125 µg/mL (≈ 0.224 µM) | 0.125 µg/mL (≈ 0.224 µM) | 0.125 µg/mL (≈ 0.224 µM)
11 | C=C[C@]1(C)C[C@@H](OC(=O)CSc2cncc(NC(=O)CN(C)C)c2)[C@]2(C)[C@H](C)CC[C@]3(CCC(=O)[C@H]32)[C@@H](C)[C@@H]1O | 0.125 µg/mL (≈ 0.219 µM) | 0.125 µg/mL (≈ 0.219 µM) | 0.125 µg/mL (≈ 0.219 µM) | 0.5 µg/mL (≈ 0.874 µM) | 0.5 µg/mL (≈ 0.874 µM) | 0.125 µg/mL (≈ 0.219 µM)
12 | C=C[C@]1(C)C[C@@H](OC(=O)CSc2cncc(NC(=O)CN3CC[C@H](O)C3)c2)[C@]2(C)[C@H](C)CC[C@]3(CCC(=O)[C@H]32)[C@@H](C)[C@@H]1O | 0.125 µg/mL (≈ 0.204 µM) | 0.125 µg/mL (≈ 0.204 µM) | 0.125 µg/mL (≈ 0.204 µM) | 0.125 µg/mL (≈ 0.204 µM) | 0.125 µg/mL (≈ 0.204 µM) | 0.125 µg/mL (≈ 0.204 µM)
13 | C=C[C@]1(C)C[C@@H](OC(=O)CSc2ccncc2N)[C@]2(C)[C@H](C)CC[C@]3(CCC(=O)[C@H]32)[C@@H](C)[C@@H]1O | 0.125 µg/mL (≈ 0.257 µM) | 0.063 µg/mL (≈ 0.129 µM) | 0.063 µg/mL (≈ 0.129 µM) | 0.063 µg/mL (≈ 0.129 µM) | 0.125 µg/mL (≈ 0.257 µM) | 0.063 µg/mL (≈ 0.129 µM)
14 | C=C[C@]1(C)C[C@@H](OC(=O)CSc2ccc(N)nc2)[C@]2(C)[C@H](C)CC[C@]3(CCC(=O)[C@H]32)[C@@H](C)[C@@H]1O | 0.063 µg/mL (≈ 0.129 µM) | 0.5 µg/mL (≈ 1.03 µM) | 0.063 µg/mL (≈ 0.129 µM) | 0.125 µg/mL (≈ 0.257 µM) | 0.125 µg/mL (≈ 0.257 µM) | 0.063 µg/mL (≈ 0.129 µM)
15 | C=C[C@]1(C)C[C@@H](OC(=O)CSc2ccncc2)[C@]2(C)[C@H](C)CC[C@]3(CCC(=O)[C@H]32)[C@@H](C)[C@@H]1O | 0.063 µg/mL (≈ 0.134 µM) | 0.063 µg/mL (≈ 0.134 µM) | 0.063 µg/mL (≈ 0.134 µM) | 0.063 µg/mL (≈ 0.134 µM) | 0.031 µg/mL (≈ 0.0657 µM) | 0.063 µg/mL (≈ 0.134 µM)
16 | C=C[C@]1(C)C[C@@H](OC(=O)CSc2cncc(NC(=O)CN3CCCC3)c2)[C@]2(C)[C@H](C)CC[C@]3(CCC(=O)[C@H]32)[C@@H](C)[C@@H]1O | 0.031 µg/mL (≈ 0.0519 µM) | 0.031 µg/mL (≈ 0.0519 µM) | 0.125 µg/mL (≈ 0.209 µM) | 0.125 µg/mL (≈ 0.209 µM) | 0.125 µg/mL (≈ 0.209 µM) | 0.125 µg/mL (≈ 0.209 µM)
